Data reported in ChEMBL document CHEMBL5036332, “Glucose-Lipopeptide Conjugates Reveal the Role of Glucose Modification Position in Complexation and the Potential of Malignant Melanoma Therapy” (J Med Chem, 2021).
Where a SMILES comes first, the peptide text is derived from it.

Tests used:
Assay type in all cases: functional, cell-based
MX1 = test: Cytotoxicity against human MX1 cells assessed as cell viability measured after 24 hrs by CCK-8 assay; conditions: MX1, 24 h
MCF7 = test: Cytotoxicity against human MCF7 cells assessed as cell viability measured after 24 hrs by CCK-8 assay; conditions: MCF7, 24 h
MDA-MB-231 = test: Cytotoxicity against human MDA-MB-231 cells assessed as cell viability measured after 24 hrs by CCK-8 assay; conditions: MDA-MB-231, 24 h

Measured: IC50

CCCCCCCCCCCCCC(=O)N[C@@H](CCCNC(=N)N)C(=O)N[C@@H](Cc1c[nH]c2ccccc12)C(=O)N[C@@H](CCCCN)C(=O)N[C@H](C(=O)N[C@@H](Cc1ccccc1)C(=O)N[C@@H](CCCCN)C(=O)N[C@@H](CCCCN)C(=O)N[C@H](C(=O)N[C@@H](CCC(=O)O)C(=O)N[C@@H](CCCCN)C(=O)N[C@H](C(=O)NCC(=O)N[C@@H](CCC(N)=O)C(=O)N[C@@H](CC(N)=O)C(=O)N[C@H](C(=O)N[C@@H](CCCNC(=N)N)C(=O)N[C@@H](CC(=O)O)C(=O)NCC(=O)N[C@H](C(=O)N[C@H](C(=O)N[C@@H](CCCCN)C(=O)N[C@@H](C)C(=O)NCC(=O)N1CCC[C@H]1C(=O)N[C@@H](C)C(=O)N[C@H](C(=O)N[C@@H](C)C(=O)N[C@H](C(=O)N[C@H](C(=O)NCC(=O)N[C@@H](CCC(N)=O)C(=O)N[C@@H](C)C(=O)N[C@@H](C)C(=O)N[C@H](C(=O)N[C@H](C(N)=O)[C@@H](C)CC)[C@@H](C)O)C(C)C)C(C)C)C(C)C)C(C)C)[C@@H](C)CC)[C@@H](C)CC)C(C)C)[C@@H](C)CC)[C@@H](C)CC (HELM PEPTIDE1{[CCCCCCCCCCCCCC(=O)[*:2]].R.W.K.I.F.K.K.I.E.K.V.G.Q.N.I.R.D.G.I.V.K.A.G.P.A.V.A.V.V.G.Q.A.A.T.I.[am]}$$$$V2.0)
< 8 µM: MX1 | MCF7 | MDA-MB-231

CCCCCCCCCCCCCCCC(=O)N[C@@H](CCCNC(=N)N)C(=O)N[C@@H](Cc1c[nH]c2ccccc12)C(=O)N[C@@H](CCCCN)C(=O)N[C@H](C(=O)N[C@@H](Cc1ccccc1)C(=O)N[C@@H](CCCCN)C(=O)N[C@@H](CCCCN)C(=O)N[C@H](C(=O)N[C@@H](CCC(=O)O)C(=O)N[C@@H](CCCCN)C(=O)N[C@H](C(=O)NCC(=O)N[C@@H](CCC(N)=O)C(=O)N[C@@H](CC(N)=O)C(=O)N[C@H](C(=O)N[C@@H](CCCNC(=N)N)C(=O)N[C@@H](CC(=O)O)C(=O)NCC(=O)N[C@H](C(=O)N[C@H](C(=O)N[C@@H](CCCCN)C(=O)N[C@@H](C)C(=O)NCC(=O)N1CCC[C@H]1C(=O)N[C@@H](C)C(=O)N[C@H](C(=O)N[C@@H](C)C(=O)N[C@H](C(=O)N[C@H](C(=O)NCC(=O)N[C@@H](CCC(N)=O)C(=O)N[C@@H](C)C(=O)N[C@@H](C)C(=O)N[C@H](C(=O)N[C@H](C(N)=O)[C@@H](C)CC)[C@@H](C)O)C(C)C)C(C)C)C(C)C)C(C)C)[C@@H](C)CC)[C@@H](C)CC)C(C)C)[C@@H](C)CC)[C@@H](C)CC (HELM PEPTIDE1{[CCCCCCCCCCCCCCCC(=O)[*:2]].R.W.K.I.F.K.K.I.E.K.V.G.Q.N.I.R.D.G.I.V.K.A.G.P.A.V.A.V.V.G.Q.A.A.T.I.[am]}$$$$V2.0)
< 8 µM: MX1 | MCF7 | MDA-MB-231

H-RWKIFKKIEKVGQNIRDGIVKAGPAVAVVGQAATI-NH2
< 8 µM: MX1 | MCF7 | MDA-MB-231
